Test results from US20200331850A1, “NOVEL SULFONAMIDE CARBOXAMIDE COMPOUNDS” (Inflazome Limited, priority 2017, published 2020).
Structures can show the parent of a compound that is named as a salt.

Legend:
[1] = target: T1, NLRP3 (Homo sapiens, UniProt Q96P20); assay: THP-1 cells pyroptosis assay (LPS + nigericin, resazurin readout); assay type: cell-based; parameters: Seed THP-1 cells (25,000 cells/well) containing 1.0 μg/ml LPS in 40 μl of RPMI medium; host or cells: THP-1 cells, LPS-primed and nigericin-stimulated; conditions: NLRP3 inhibitory activity in THP-1 cells, 1.0 μg/ml LPS, 5 μM nigericin
Excerpt: It is well established that the activation of NLRP3 leads to cell pyroptosis and this feature plays an important part in the manifestation of clinical disease (Yan-gang Liu et al., Cell Death & Disease, 2017, 8(2), e2579; Alexander Wree et al., Hepatology, 2014, 59(3), 898-910; Alex Baldwin et al., Journal of Medicinal Chemistry, 2016, 59(5), 1691-1710; Ema Ozaki et al., Journal of Inflammation Research, 2015, 8, 15-27; Zhen Xie & Gang Zhao, Neuroimmunology Neuroinflammation, 2014, 1(2), 60-65; Mattia Cocco et al., Journal of Medicinal Chemistry, 2014, 57(24), 10366-10382; T. Satoh et al., Cell Death & Disease, 2013, 4, e644). Therefore, it is anticipated that inhibitors of NLRP3 will block pyroptosis, as well as the release of pro-inflammatory cytokines (e.g. IL-1β) from the cell. THP-1 cells (ATCC # TIB-202) were grown in RPMI containing L-glutamine (Gibco #11835) supplemented with 1 mM sodium pyruvate (Sigma # S8636) and penicillin (100 units/ml)/streptomycin (0.1 mg/ml) (Sigma # P4333) in 10% Fetal Bovine Serum (FBS) (Sigma # F0804). The cells were routinely passaged and grown to confluency (˜10^6 cells/ml). On the day of the experiment, THP-1 cells were harvested and resuspended into RPMI medium (without FBS). The cells were then counted and viability (>90%) checked by Trypan blue (Sigma # T8154). Appropriate dilutions were made to give a concentration of 625,000 cells/ml. To this diluted cell solution was added LPS (Sigma # L4524) to give a […] Final Assay Concentration (FAC). 40 μl of the final preparation was aliquoted into each well of a 96-well plate. The plate thus prepared was used for compound screening. The following method step-by-step assay was followed for compound screening. • 1. Seed THP-1 cells (25,000 cells/well) containing 1.0 μg/ml LPS in 40 μl of RPMI medium (without FBS) in 96-well, black walled, clear bottom cell culture plates coated with poly-D-lysine (VWR #734-0317) • 2. Add 5 μl compound (8 points half-log dilution, with 10 μM top dose) or vehicle (DMSO 0.1% FAC) to the appropriate wells • 3. […] Add 5 μl nigericin (Sigma # N7143) (FAC 5 μM) to all wells • 5. […] At the end of the incubation period, spin plates at 300×g for 3 mins and remove supernatant • 7. Then add 50 μl of resazurin (Sigma # R7017) (FAC 100 μM resazurin in RPMI medium without FBS) and incubate plates for a further 1-2 hrs at 37° C. and 5% CO2 • 8. Plates were read in an Envision reader at Ex 560 nm and Em 590 nm • 9. IC50 data is fitted to a non-linear regression equation (log inhibitor vs response-variable slope 4-parameters) The results of the pyroptosis assay performed are summarised in Table 1 below as THP IC50.

[2] = target: T1, NLRP3; assay: Human whole blood IL1β release assay (LPS + nigericin, AlphaLisa IL-1β); assay type: cell-based; parameters: Plate out 80 μl of whole blood containing 1βg/ml of LPS in 96-well, clear bottom cell culture plate; from tissue; host or cells: human whole blood from healthy donors, LPS-primed and nigericin-stimulated; conditions: NLRP3 inhibitory activity in human whole blood, IL-1β release, 10 μM nigericin, read-out: HWB IC50
Protocol: For systemic delivery, the ability to inhibit NLRP3 when the compounds are present within the bloodstream is of great importance. For this reason, the NLRP3 inhibitory activity of a number of compounds in human whole blood was investigated in accordance with the following protocol.
Human whole blood in Li-heparin tubes was obtained from healthy donors from a volunteer donor panel. • 1. Plate out 80 μl of whole blood containing 1βg/ml of LPS in 96-well, clear bottom cell culture plate (Corning #3585) • 2. Add 10 μl compound (8 points half-log dilution with 10 μM top dose) or vehicle (DMSO 0.1% FAC) to the appropriate wells • 3. Incubate for 3 hrs at 37° C., 5% CO2 • 4. Add 10 μl Nigericin (Sigma # N7143) (10 μM FAC) to all wells • 5. Incubate for 1 hr at 37° C., 5% CO2 • 6. At the end of the incubation period, spin plates at 300×g for 5 mins to pellet cells and remove 20 μl of supernatant and add to 96-well v-bottom plates for IL-1β analysis (note: these plates containing the supernatants can be stored at −80° C. to be analysed at a later date) • 7. IL-1β was measured according to the manufacturer protocol (Perkin Elmer-AlphaLisa IL-1 Kit AL220F-5000) • 8. IC50 data is fitted to a non-linear regression equation (log inhibitor vs response-variable slope 4-parameters)

T1 sequence (Q96P20 whole entry): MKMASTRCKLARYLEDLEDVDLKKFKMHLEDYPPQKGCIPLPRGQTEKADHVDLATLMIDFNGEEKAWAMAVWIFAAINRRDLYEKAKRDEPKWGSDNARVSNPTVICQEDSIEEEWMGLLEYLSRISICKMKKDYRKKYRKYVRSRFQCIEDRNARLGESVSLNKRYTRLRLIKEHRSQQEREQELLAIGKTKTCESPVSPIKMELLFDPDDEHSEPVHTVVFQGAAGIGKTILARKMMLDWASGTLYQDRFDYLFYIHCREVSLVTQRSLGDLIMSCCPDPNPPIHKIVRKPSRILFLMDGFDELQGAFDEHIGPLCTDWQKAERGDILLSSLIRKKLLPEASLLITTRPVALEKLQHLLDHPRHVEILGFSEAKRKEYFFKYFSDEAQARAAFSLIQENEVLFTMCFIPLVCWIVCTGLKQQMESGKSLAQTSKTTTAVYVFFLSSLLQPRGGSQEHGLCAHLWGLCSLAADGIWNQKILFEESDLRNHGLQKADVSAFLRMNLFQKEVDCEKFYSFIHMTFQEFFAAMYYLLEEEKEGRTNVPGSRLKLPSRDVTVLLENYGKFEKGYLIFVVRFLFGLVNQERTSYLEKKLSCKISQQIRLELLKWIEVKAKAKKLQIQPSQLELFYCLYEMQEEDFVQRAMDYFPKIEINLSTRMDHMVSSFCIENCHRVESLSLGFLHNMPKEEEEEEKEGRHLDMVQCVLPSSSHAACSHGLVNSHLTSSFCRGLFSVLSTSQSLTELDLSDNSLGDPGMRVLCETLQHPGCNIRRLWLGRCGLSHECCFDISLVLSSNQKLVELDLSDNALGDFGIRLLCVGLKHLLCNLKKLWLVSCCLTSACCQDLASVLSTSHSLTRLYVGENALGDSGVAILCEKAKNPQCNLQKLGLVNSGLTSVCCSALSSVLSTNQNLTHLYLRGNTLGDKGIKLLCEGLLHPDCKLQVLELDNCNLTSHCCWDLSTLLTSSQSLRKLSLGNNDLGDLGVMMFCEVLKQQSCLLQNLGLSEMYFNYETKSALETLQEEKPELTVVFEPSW

Row | IC50 [1] [µM] | IC50 [2] [µM] | SMILES
1 | 2 to 10 | ≤ 7.5 | CC(C)N1CC2(COC(CS(=O)(=O)NC(=O)Nc3c4c(cc5c3CCC5)CCC4)C2)C1 (stereo not drawn) [Example 77, N-((1,2,3,5,6,7-Hexahydro-s-indacen-4-yl)carbamoyl)-1-(2-isopropyl-6-oxa-2-azaspiro[3.4]octan-7-yl)methanesulfonamide, Potassium Salt]
2 | 1.6 to 2 | ≤ 5 | CN(C)CCCCS(=O)(=O)NC(=O)Nc1c2c(cc3c1CCC3)CCC2 [Example 82, 4-(Dimethylamino)-N-((1,2,3,5,6,7-hexahydro-s-indacen-4-yl)carbamoyl)butane-1-sulfonamide]
3 | 2 to 10 | – | CC1(C)C2CC[C@@]1(CS(=O)(=O)NC(=O)Nc1c3c(cc4c1CCC4)CCC3)C(N)C2 (stereo partly drawn) [Example 85, 1-((1S)-2-Amino-7,7-dimethylbicyclo[2.2.1]heptan-1-yl)-N-((1,2,3,5,6,7-hexahydro-s-indacen-4-yl)carbamoyl)methanesulfonamide]
4 | 2 to 10 | – | COCCCS(=O)(=O)NC(=O)Nc1c(-c2ccnc(C#N)c2)cc(F)cc1C(C)C [Example 49, N-((2-(2-Cyanopyridin-4-yl)-4-fluoro-6-isopropylphenyl)carbamoyl)-3-methoxypropane-1-sulfonamide]
5 | 2 to 10 | – | CN1CCC(CS(=O)(=O)NC(=O)Nc2c3c(cc4c2CCC4)CCC3)CC1 [Example 22, N-((1,2,3,5,6,7-Hexahydro-s-indacen-4-yl)carbamoyl)-1-(1-methylpiperidin-4-yl)methanesulfonamide, Potassium Salt]
6 | 2 to 10 | – | CC(C)c1cc(F)cc(C(C)C)c1NC(=O)NS(=O)(=O)CCCN(C)C [Example 101, 3-(Dimethylamino)-N-((4-fluoro-2,6-diisopropylphenyl)carbamoyl)propane-1-sulfonamide]
7 | 2 to 10 | – | CN1CC2(CC(S(=O)(=O)NC(=O)Nc3c4c(cc5c3CCC5)CCC4)C2)C1 [Example 40, N-((1,2,3,5,6,7-Hexahydro-s-indacen-4-yl)carbamoyl)-2-methyl-2-azaspiro[3.3]heptane-6-sulfonamide, potassium salt]
8 | 2 to 10 | – | CCN(C(C)=O)C1CCC(S(=O)(=O)NC(=O)Nc2c3c(cc4c2CCC4)CCC3)CC1 (stereo not drawn) [Example 63, N-ethyl-N-(4-(N-((1,2,3,5,6,7-hexahydro-s-indacen-4-yl)carbamoyl)sulfamoyl)cyclohexyl)acetamide]
9 | 2 to 10 | – | CC(C)c1cc(F)cc(-c2ccnc(C#N)c2)c1NC(=O)NS(=O)(=O)CC1CCN(C)C1 (stereo not drawn) [Example 57, N-((2-(2-Cyanopyridin-4-yl)-4-fluoro-6-isopropylphenyl)carbamoyl)-1-(1-methylpyrrolidin-3-yl)methanesulfonamide]
10 | 2 to 10 | – | NCCCS(=O)(=O)NC(=O)Nc1c2c(cc3c1CCC3)CCC2 [Example 65, 3-Amino-N-((1,2,3,5,6,7-hexahydro-s-indacen-4-yl)carbamoyl) propane-1-sulfonamide potassium salt]
11 | 2 to 10 | – | CC(CN(C)C)S(=O)(=O)NC(=O)Nc1c2c(cc3c1CCC3)CCC2 (stereo not drawn) [Example 26, 1-(Dimethylamino)-N-((1,2,3,5,6,7-hexahydro-s-indacen-4-yl)carbamoyl)propane-2-sulfonamide, potassium salt]
12 | 2 to 10 | – | CC(C)c1cc(F)cc(-c2ccnc(C#N)c2)c1NC(=O)NS(=O)(=O)Cc1cccnc1 [Example 112, N-((2-(2-Cyanopyridin-4-yl)-4-fluoro-6-isopropylphenyl)carbamoyl)-1-(pyridin-3-yl)methanesulfonamide]
13 | 2 to 10 | – | CC(=O)NCCS(=O)(=O)NC(=O)Nc1c2c(cc3c1CCC3)CCC2 [Example 6, N-(2-(N-((1,2,3,5,6,7-Hexahydro-s-indacen-4-yl)carbamoyl)sulfamoyl)ethyl)acetamide, Potassium Salt]
14 | 1.6 to 2 | – | COCCC(=O)N(C)CCCS(=O)(=O)NC(=O)Nc1c2c(cc3c1CCC3)CCC2 [Example 94, N-(3-(N-((1,2,3,5,6,7-Hexahydro-s-indacen-4-yl)carbamoyl)sulfamoyl)propyl)-3-methoxy-N-methylpropanamide]
15 | 2 to 10 | – | CCN(CC)CCS(=O)(=O)NC(=O)Nc1c2c(cc3c1CCC3)CCC2 [Example 18, 2-(Diethylamino)-N-((1,2,3,5,6,7-hexahydro-s-indacen-4-yl)carbamoyl)ethane-1-sulfonamide, potassium salt]
16 | 1.6 to 2 | – | O=C(Nc1c2c(cc3c1CCC3)CCC2)NS(=O)(=O)C1(CN2CCC2)CC1 [Example 87, 1-(Azetidin-1-ylmethyl)-N-((1,2,3,5,6,7-hexahydro-s-indacen-4-yl)carbamoyl)cyclopropane-1-sulfonamide]
17 | 2 to 10 | – | CC(C)c1cc(Cl)cc(C(C)C)c1NC(=O)NS(=O)(=O)CCCN(C)C [Example 108, 3-(Dimethylamino)-N-((4-chloro-2,6-diisopropylphenyl)carbamoyl)propane-1-sulfonamide]
18 | 1.6 to 2 | – | O=C(Nc1c2c(cc3c1CCC3)CCC2)NS(=O)(=O)CCCN1CCCCC1 [Example 16, N-((1,2,3,5,6,7-Hexahydro-s-indacen-4-yl)carbamoyl)-3-(piperidin-1-yl)propane-1-sulfonamide, Potassium Salt]
19 | 2 to 10 | – | C[N+](C)(C)CCCS(=O)(=O)NC(=O)Nc1c2c(cc3c1CCC3)CCC2 [Example 66, 3-(N-((1,2,3,5,6,7-Hexahydro-s-indacen-4-yl)carbamoyl)sulfamoyl)-N,N,N-trimethylpropan-1-aminium, Potassium Salt]
